This is an account of results in PubChem BioAssay AID179 (DTP/NCI, 2004).

Calls of active or inactive are those of the source.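 The calls were made as follows: active = compounds giving half or more protection of infected cells from virus-caused growth loss, again on retest; inactive = the rest.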 A value given as a limit tells only on which side of the number the result lay.

For the experiment, the system named is CEM cells HIV-1 protection, formazan growth assay. The experiment is described as follows: NCI AIDS Antiviral Assay. The settings on record: for IC50: measured here: growth of uninfected CEM cells. The procedure, abridged:
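Human CEM cells, uninfected and HIV-1-infected, received five drug concentrations, and growth was read by soluble formazan assay. Compounds giving at least 50% protection were retested; reproducible 100% protection defined confirmed active.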

On to `COc1ccc(/C=C/C(=O)c2nc3ccccc3[nH]2)cc1`, for which the EC50 was more than 200 µM and the half-maximal inhibitory concentration (IC50) was found to be 3.98 µM. For `CC(=O)Oc1cc(/C=C(\C#N)C(=O)NCCCCCNC(=O)/C(C#N)=C/c2cc(OC(C)=O)c(OC(C)=O)c(OC(C)=O)c2)cc(OC(C)=O)c1OC(C)=O` the same measures were more than 200 µM and 27.5 µM.

With `CC(C)(C)c1cc(C2c3cc4c(cc3OC(O)(CO)C2C(=O)O)OCO4)cc(C(C)(C)C)c1O` (configuration not stated) (tested in a mixture with another compound), the result was inactive.

As to `C[C@H]1C[C@H]2[C@@H]3CCC4=CC(=O)C=C[C@]4(C)[C@@]3(F)[C@@H](O)C[C@]2(C)[C@H]1O`, the result was inactive. On the same count and under the same terms, with `O=C1/C(=N\O)S(=O)(=O)c2ccccc21` the entry was “inactive”. As to `O=S1(=O)C/C(=C\N2CCOCC2)c2ccccc21`, the EC50 was more than 200 µM and the concentration for half-maximal inhibition (IC50) was more than 200 µM.

In the case of `COC1/C=C/OC2(C)Oc3c(C)c(O)c4c(O)c(c(/C=N/N5CC(C)N(Cc6ccccc6)C(C)C5)c(O)c4c3C2=O)NC(=O)C(C)=C/C=C/C(C)C(O)C(C)C(O)C(C)C(OC(C)=O)C1C` (configuration not stated), the EC50 was more than 200 µM and the 50% inhibitory concentration (IC50) came to 3.09 µM. For `C/C(O)=C(\C=NC(=S)c1cccnc1)C(=O)Nc1ccccc1C` the same measures were more than 200 µM and more than 200 µM.

Turning to `c1ccc(CN2COCO[C@H]3CCC[C@@H]32)cc1`, the EC50 was more than 200 µM and the IC50 was found to be 123 µM.

`S=c1s[nH]c2c1CCC2`: the EC50 is more than 107 µM and the IC50 stood at 77.6 µM. For `COc1cccc(/C=C2\Cc3ccccc3C2=O)c1` the same measures were more than 4.17 µM and more than 4.17 µM. For `CN1C(=O)CC(Sc2ccccc2)c2cc(Cl)ccc21` (configuration not stated) the same measures were more than 200 µM and 15.8 µM. On to `C/C=C(\CC)C(C#N)O[Si](C)(C)C` (configuration not stated), for which the outcome was inactive. On to `N#CC(c1ccccc1)N(CCc1ccccc1)C(=O)c1ccccc1` (configuration not stated), for which the EC50 is more than 126 µM and the IC50 is more than 126 µM. On to `Cc1cc2c(=O)cc(-c3ccc(Cl)cc3)oc2c(C(=O)O)c1C`, for which the result was inactive. Consider `O=c1n(CCO)nc2n1CCCN2`, for which the EC50 is more than 200 µM and the IC50 was more than 200 µM. Consider `CC(C)C1CC2C(=O)N(c3ccccc3)C(=O)C2c2[nH]c3ccccc3c21` (configuration not stated), for which the outcome was inactive.

As for `CCCCCCCCCCCCCCCCOC(=O)c1cc(OCCOP(=O)(O)O)cc(C(=O)OCCCCCCCCCCCCCCCC)c1`, the result was inactive. `Cc1ccc(S(=O)(=O)n2cc(/C=C/C#N)c(-c3cn(S(=O)(=O)c4ccc(C)cc4)cc3-c3cn(S(=O)(=O)c4ccc(C)cc4)cc3/C=C/C#N)c2)cc1`: the EC50 was more than 200 µM and the IC50 is more than 200 µM. For the compound `Cn1cc(NC(=O)c2nc(NC(=O)c3nc(NC(=O)c4ccc(C(=O)Nc5cn(C)c(C(=O)Nc6cn(C)c(C(=O)Nc7cn(C)c(C(=O)NCCC(=N)N)n7)n6)n5)cc4)cn3C)cn2C)nc1C(=O)NCCC(=N)N`, the EC50 is more than 12.9 µM and the half-maximal inhibitory concentration (IC50) was 2.34 µM. Taken in the same sequence, the figures for `NCCc1nc2ccccc2[nH]1` were more than 200 µM and more than 200 µM. Consider `O=C([N-]/N=C/c1ccccc1)c1ccccc1[O-].[OH3+].[Zn+2]`, for which the EC50 is 162 µM and the 50% inhibitory concentration (IC50) came to 166 µM. On to `COc1ccc2c(=O)c(-c3ccc4c(c3)OCO4)c(C)oc2c1`, for which the EC50 is more than 200 µM and the IC50 was found to be 42.7 µM. Taken in the same sequence, the figures for `Cc1nc2sc3c(c2c(=O)o1)CCCC3` were more than 200 µM and 33.1 µM. With `CC(C)C(C(=O)O)N(CC1(O)OCC(O)C(O)C1O)N=O` (configuration not stated), the outcome was inactive.

In the case of `O=c1[nH]c(Nc2cccc(Cl)c2)nc2nc[nH]c12`, the EC50 is more than 200 µM and the IC50 came out at 151 µM. Taken in the same sequence, the figures for `CC(=O)Nc1cc(Nc2cc(=O)[nH]c(=O)[nH]2)ccc1C` were more than 200 µM and more than 200 µM. Taken in the same sequence, the figures for `Cc1cc2c(cc1Cl)SC(NNC1=NCCN1)=NS2(=O)=O` were more than 200 µM and 115 µM. For `O=[N+]([O-])c1ccc2c(c1)Sc1ccccc1N2` the same measures were more than 200 µM and 60.3 µM. Take `COc1cc(Nc2cnc3cc(F)c(F)cc3n2)cc(OC)c1OC`: the EC50 was more than 200 µM and the IC50 was more than 200 µM. For `O=C(Nc1cccc(C(=O)NCCCO)c1)/C(=C/c1ccccc1)NC(=O)c1ccccc1`, the EC50 is more than 200 µM and the half-inhibitory concentration (IC50) is more than 200 µM.

With `CSc1nc(SC)c2ncn(C3CC(Oc4ccc(C)cc4)C(COc4ccc(C)cc4)O3)c2n1` (configuration not stated), the EC50 was more than 100 µM and the IC50 amounted to 66.1 µM. Consider `CC(=O)OCC12CCC(C)=CC1OC1C(O)C(OC(C)=O)C2(C)C12CO2` (configuration not stated), for which the EC50 was more than 3.39 µM and the IC50 was 0.00331 µM. For `Cc1cn(COCCCS(=O)c2ccccc2)c(=O)[nH]c1=O` (configuration not stated) the same measures were more than 200 µM and more than 200 µM. In the case of `CC(C)(C)N=CN1C=Cc2nc3ccccc3cc2C1`, the outcome was inactive. As to `COc1cc2c(cc1OC)C13CC[N+]4(C)CC5CCOC6CCN2C1C6C5CC34` (configuration not stated), the EC50 was more than 479 µM and the IC50 came to 66.1 µM.

Turning to `Cc1nc(C(N)=O)c(N)n1CCN1CCN(C(=O)CCCCCCCCCCNC2N=CNc3nc[nH]c32)CC1` (configuration not stated), the result was inactive. Take `c1ccc2c(c1)C1CCCCCC21N1CCOCC1` (configuration not stated): the EC50 was more than 200 µM and the IC50 turned out to be 170 µM. Taken in the same sequence, the figures for `COc1ccc(C[C@H](N)C(=O)NC2C(CO)OC(n3cnc4c(N(C)C)ncnc43)C2O)cc1` (some centres not stated) were more than 200 µM and 0.117 µM.

`c1cc[c]([Sn]([S]c2cccc3cccnc23)([c]2ccccc2)[c]2ccccc2)cc1`: the outcome was inactive.

With `C[C@]12CC[C@H](O)CC1=CC[C@@H]1[C@@H]2CC[C@]2(C)/C(=N/OCCN3CCCC3)CC[C@@H]12`, the EC50 was more than 200 µM and the IC50 was 9.33 µM.

As to `CON(C)c1nc(N(C)OC)nc(N(C)OC)n1`, the EC50 is more than 200 µM and the 50% inhibitory concentration (IC50) was more than 200 µM. With `Cc1cc(=O)n2c(nc3cc([N+](=O)[O-])ccc32)s1`, the EC50 was more than 200 µM and the IC50 was determined as 186 µM. Regarding `C#CCOCn1cnc2c(=O)[nH]cnc21`, the EC50 was more than 331 µM and the IC50 was more than 331 µM. In the case of `C=C(C)C(=O)OC1C[C@H](COC(C)=O)C2CC=C(C)C2C2OC(=O)C(=C)[C@H]12` (some centres not stated), the EC50 is more than 200 µM and the IC50 is 1.05 µM. For `CCOC(=O)NC(NCC(O)c1ccccc1)(C(F)(F)F)C(F)(F)F` (configuration not stated) the same measures were more than 200 µM and 174 µM. For the compound `Cc1ccc2nc(-c3ccccc3[N+](=O)[O-])[nH]c2c1`, the EC50 is more than 269 µM and the half-inhibitory concentration (IC50) was 57.5 µM. Taken in the same sequence, the figures for `FC(F)(F)c1ccccc1C=NC12CC3CC(CC(C3)C1)C2` were more than 30.9 µM and more than 30.9 µM. Taken in the same sequence, the figures for `CC(=O)C1CCC2C1(C)CC1OC13C21C=CC2(CC(O)CCC23C)C2C(=O)OC(=O)C21` (configuration not stated) were more than 302 µM and more than 302 µM. Taken in the same sequence, the figures for `Cn1c(N)c(N=O)c(=O)n(C)c1=O` were more than 200 µM and more than 200 µM. Consider `CN(C)C(=Nc1nc(=[N+](C)C)ss1)N(C)C`, for which the outcome was inactive. As to `N#C/C(=C\c1cc(Cl)cc(Cl)c1O)c1nc2ccccc2[nH]1`, the EC50 is more than 200 µM and the 50% inhibitory concentration (IC50) is 30.9 µM. Taken in the same sequence, the figures for `Cc1cc(Cl)ccc1N1C(=O)C(=O)C(c2nc3ccccc3s2)C(=O)C1=O` were more than 91.2 µM and more than 91.2 µM.

`C=CCO/N=C/c1cc(NC(=S)c2ccoc2C)ccc1Cl`: the concentration giving a half-maximal response (EC50) was 0.0186 µM and the IC50 is 15.5 µM. Taken in the same sequence, the figures for `CCN1C(=O)C(N2CCCCC2)S/C1=C\C(=O)O` (configuration not stated) were more than 933 µM and 457 µM. Take `CN(/N=C/c1ccnc2ccccc12)c1ccc([N+](=O)[O-])cc1[N+](=O)[O-]`: the result was inactive. Regarding `CNc1ccc(/C=C2\C=Cc3ccccc32)cc1`, the EC50 is more than 200 µM and the half-inhibitory concentration (IC50) was more than 200 µM. Take `Cc1ccccc1C1OC(=O)c2ccccc21` (configuration not stated): the EC50 is more than 158 µM and the IC50 was 97.7 µM. For the compound `O=S1(=O)C(c2cccc(F)c2)=C(O)c2cc3ccccc3nc21`, the result was inactive. Take `CC(=O)Oc1ccc(-c2cc3ccccc3oc2=O)cc1OC(C)=O`: the EC50 is more than 200 µM and the IC50 worked out at 8.32 µM.

With `O=[P+](O)c1ccsc1`, the result was inactive. Take `c1ccc(-c2nn3c(-c4ccccc4)nnc3o2)cc1`: the EC50 was more than 200 µM and the IC50 amounted to 40.7 µM.

Take `O=C1C=C(Nc2ccc(S(=O)(=O)Nc3ncccn3)cc2)c2ccccc2C1=O`: the EC50 is more than 447 µM and the IC50 worked out at 67.6 µM. For `NCC(NC(=O)OCc1ccccc1)C(=O)O` (configuration not stated) the same measures were more than 105 µM and more than 105 µM. Taken in the same sequence, the figures for `CC(C)=C=CP(=O)(O)c1ccccc1` were more than 200 µM and more than 200 µM. For `COC(=O)/C=C/c1c[nH]c2nccnc12` the same measures were more than 166 µM and 53.7 µM. In the case of `O=C1CCC2(CC1)SCCCS2`, the EC50 was more than 339 µM and the IC50 was more than 339 µM. Take `COc1cc2c(cn1)[nH]c1ccccc12`: the result was inactive. Take `CCOC(=O)C(=Cn1ccc(=O)[nH]c1=S)C(=O)OCC`: the EC50 is more than 200 µM and the IC50 is more than 200 µM. With `S=C1N(c2ccc(Cl)cc2)C2=C(N=Nc3ccccc3Cl)C(=Nc3ccccc3S2)N1c1ccccn1`, the EC50 is more than 46.8 µM and the half-maximal inhibitory concentration (IC50) came out at 21.9 µM.

Turning to `COc1ccccc1/C=C1/Sc2scc(CC(=O)Nc3ccccc3)[n+]2C1=O`, the outcome was inactive and the IC50 came out at 28.8 µM. As for `Cc1ccccc1C1N=C2Oc3ccccc3C=C2C(=O)N1` (configuration not stated), the EC50 was more than 100 µM and the half-maximal inhibitory concentration (IC50) is 1.41 µM.

Consider `CCC(C)NC1=NCC(C)S1` (configuration not stated), for which the EC50 is more than 200 µM and the IC50 was more than 200 µM. On to `CC(C)(Oc1ccc2c(=O)cc(-c3ccccc3)oc2c1)C(=O)N1CCN(c2ccccc2)CC1`, for which the EC50 is more than 200 µM and the IC50 came to 20.9 µM.

As a reminder, the EC50 is the concentration needed to bring the measured effect to its halfway point. A word on the IC50: it is the concentration at which inhibition is half-maximal. A low value points to higher potency.
